One test deals with T1, EGFR kinase (Homo sapiens, UniProt P00533).
T1 construct: EGFR kinase domain alone, Millipore; purchased Millipore
Description: EGFR radiometric kinase assay. The class given is biochemical. The note with it: 100 μM ATP, read-out: Inhibition activity, IC50 EGFR. How it is done: (§1) The inhibitory activity against VEGFR2 or EGFR was determined by radiometric kinase assay. The experimental condition for VEGFR2 kinase assay was 6.25 ng of recombinant VEGFR2 kinase (VEGFR2 kinase domain alone, Millipore), 5 μg of substrate Poly(Glu-Tyr) (4:1, Sigma), kinase reaction buffer (20 mM MOPS pH 7.0, 1 mM EDTA, 5% glycerol, 0.01% Brij-35, 0.1% β-mercaptoethanol, 1 mg/mL BSA, 100 μM ATP, and 0.1 μCi per well [^33P] ATP (specific activity 3000 Ci/mmol, PerkinElmer)), and the test compound (diluted with 4% DMSO) or DMSO alone (as a control) in a final volume of 25 μL. Reactions were incubated at 30° C. for 30 min and stopped by adding 3% phosphoric acid, harvested onto a 96-well GF/B UniFilter (PerkinElmer) using a unifilter harvester (PerkinElmer), and counted with a TopCount microplate scintillation counter (PerkinElmer).
The experimental condition for EGFR kinase assay was 25 ng of EGFR kinase (EGFR kinase domain alone, Millipore), 3 μg of the substrate poly(Glu-Tyr), (Sigma), kinase reaction buffer (10 mM MOPS pH 7.0, 0.3 mM EDTA, 0.5% glycerol, 0.001% Brij-35, 10 mM MnCl2, 0.1 mg/ml BSA, 100 μM ATP, and 0.1 μCi per well [^33P]ATP (specific activity 3000 Ci/mmol, PerkinElmer)), and the test compound (diluted with 4% DMSO) or DMSO (as a control) in a final volume of 25 μL. Reactions were incubated at 30° C. for 30 min and stopped by adding 3% phosphoric acid, harvested onto a 96-well GF/B UniFilter (PerkinElmer) using a unifilter harvester (PerkinElmer), and counted with a TopCount microplate scintillation counter (PerkinElmer).
(§2) Results of inhibition activity against VEGFR2 and EGFR kinases by the selected compounds, which have IC50 values on B-Raf kinase <300 nM, are summarized in Table 6.

The target of a further test is T2, B-Raf kinase (Homo sapiens, UniProt P15056).
T2 construct: purchased Upstate Biotechnology
T2 sequence (P15056 whole entry): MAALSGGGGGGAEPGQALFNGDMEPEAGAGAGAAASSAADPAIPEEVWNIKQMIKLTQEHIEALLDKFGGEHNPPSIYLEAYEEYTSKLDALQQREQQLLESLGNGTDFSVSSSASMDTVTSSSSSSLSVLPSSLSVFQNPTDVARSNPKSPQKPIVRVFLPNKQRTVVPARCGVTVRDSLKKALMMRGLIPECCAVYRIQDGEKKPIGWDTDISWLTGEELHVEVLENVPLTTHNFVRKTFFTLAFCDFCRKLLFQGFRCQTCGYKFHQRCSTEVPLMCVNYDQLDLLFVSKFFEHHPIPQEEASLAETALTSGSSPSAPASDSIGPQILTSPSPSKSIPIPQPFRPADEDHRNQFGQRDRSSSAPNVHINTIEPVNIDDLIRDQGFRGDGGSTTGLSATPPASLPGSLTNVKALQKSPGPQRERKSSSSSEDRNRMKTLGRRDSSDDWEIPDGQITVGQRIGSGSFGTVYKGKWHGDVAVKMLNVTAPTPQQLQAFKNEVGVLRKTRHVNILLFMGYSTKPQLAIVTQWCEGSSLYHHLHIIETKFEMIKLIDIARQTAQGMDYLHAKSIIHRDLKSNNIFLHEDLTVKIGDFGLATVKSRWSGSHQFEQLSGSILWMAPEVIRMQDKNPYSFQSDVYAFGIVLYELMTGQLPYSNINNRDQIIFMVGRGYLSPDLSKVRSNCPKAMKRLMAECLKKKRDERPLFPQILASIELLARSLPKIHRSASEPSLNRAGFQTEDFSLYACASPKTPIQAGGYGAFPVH
The experiment in a line: B-Raf kinase assay ([33P] incorporation into MEK1(K97R)). Type of test: biochemical. The note with it: class symbols; 8 μM ATP; read-out: IC50 against B-Raf kinase. The procedure, abridged: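 Recombinant B-Raf (5 ng) phosphorylating 500 ng MEK1(K97R) with 8 μM ATP plus [33P]ATP, pH 7.5 Tris buffer, 30 min at 30 °C. Radiolabel incorporation counted by filter-binding scintillation; IC50 from 3-fold serial dilutions run in duplicate.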

For another test, the target named is T3, VEGFR2 kinase (Homo sapiens, UniProt P35968).
T3 construct: VEGFR2 kinase domain alone, Millipore; purchased Millipore
T3 sequence (P35968 834-1162 limits assumed): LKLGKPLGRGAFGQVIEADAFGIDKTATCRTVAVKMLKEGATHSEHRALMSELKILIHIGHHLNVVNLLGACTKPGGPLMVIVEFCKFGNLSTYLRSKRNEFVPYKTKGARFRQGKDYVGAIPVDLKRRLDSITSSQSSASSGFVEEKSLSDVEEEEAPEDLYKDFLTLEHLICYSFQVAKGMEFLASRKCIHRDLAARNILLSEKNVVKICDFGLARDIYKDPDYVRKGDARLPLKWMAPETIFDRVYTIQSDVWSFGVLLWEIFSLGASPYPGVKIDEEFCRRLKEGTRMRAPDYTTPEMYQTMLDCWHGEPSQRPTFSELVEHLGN
The experiment in a line: VEGFR2 radiometric kinase assay. Type of test: biochemical. The note with it: given as bound; 100 μM ATP; read-out: Inhibition activity, IC50 VEGFR2. As for the experimental part: as §1, §2

Another test deals with T4, C-Raf kinase (Homo sapiens, UniProt P04049).
T4 construct: purchased Upstate Biotechnology
T4 sequence (P04049 whole entry): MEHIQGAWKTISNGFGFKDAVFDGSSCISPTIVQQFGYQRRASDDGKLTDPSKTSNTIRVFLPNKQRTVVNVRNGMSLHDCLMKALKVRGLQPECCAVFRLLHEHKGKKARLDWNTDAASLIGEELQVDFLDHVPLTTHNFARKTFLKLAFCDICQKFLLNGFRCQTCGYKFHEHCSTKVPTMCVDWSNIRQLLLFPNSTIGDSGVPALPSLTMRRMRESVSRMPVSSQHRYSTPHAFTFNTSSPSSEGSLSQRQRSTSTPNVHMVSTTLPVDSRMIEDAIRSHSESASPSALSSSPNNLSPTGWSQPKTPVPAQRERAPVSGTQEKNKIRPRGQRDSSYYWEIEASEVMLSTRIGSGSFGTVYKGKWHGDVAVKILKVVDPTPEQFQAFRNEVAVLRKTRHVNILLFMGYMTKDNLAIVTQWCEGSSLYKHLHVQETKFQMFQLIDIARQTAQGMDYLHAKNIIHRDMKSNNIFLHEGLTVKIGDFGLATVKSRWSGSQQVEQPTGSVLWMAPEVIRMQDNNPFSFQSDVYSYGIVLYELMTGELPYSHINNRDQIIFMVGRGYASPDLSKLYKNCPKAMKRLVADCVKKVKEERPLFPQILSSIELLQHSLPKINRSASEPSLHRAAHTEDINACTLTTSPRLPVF
The experiment in a line: C-Raf kinase assay ([33P] incorporation into MEK1(K97R)). The conditions noted are these: class symbols; 8 μM ATP; read-out: IC50 against C-Raf kinase. Type of test: biochemical. How it is done:
(§3) Inhibition of kinase activity by a test compound disclosed herein was estimated by quantifying the amount of [^33P] incorporation of a substrate in the presence of the test compound. Standard assay conditions were 2 ng of recombinant C-Raf kinase (Upstate Biotechnology) with 500 ng MEK1 (K97R) in assay buffer (8 μM ATP, 0.5 μCi [^33P] ATP (specific activity 3000 Ci/mmol, PerkinElmer), 50 mM Tris/HCl (pH7.5), and 1 mM EGTA, 1 mM Na3VO4, 1% 2-mercaptoethanol, 0.1% Brij 35, and 0.2 mg/ml BSA), and the test compound (diluted with 4% DMSO) or DMSO alone (as a control) in a final volume of 25 μL. Reactions were incubated at 30° C. for 30 min and stopped by adding 3% phosphoric acid, harvested onto a 96-well GF/B UniFilter (PerkinElmer) using a unifilter harvester (PerkinElmer), and counted with a TopCount microplate scintillation counter (PerkinElmer). The IC50 values of inhibitors were determined after carrying out assays at 3-fold serially diluted concentrations of each compound in duplication. The results were analyzed using linear regression software (GraphPad Prism 4; GraphPad Software Inc.).

Test [1] has as its system A375 melanoma cells and COLO205 colon cancer cells. Description: Cell proliferation assay (CellTiter-96). Type of test: cell-based. The note with it: Homo sapiens; A375 or COLO205, 72 hours treatment; read-out: Cytotoxicity IC50 for A375 or COLO205. How it is done: The anti-proliferative activities of compounds of formula (I) against B-Raf(V600E) mutant human cancer cell lines, A375 melanoma cells and COLO205 colon cancer cells, were measured using the CellTiter™-96 assay kit (Promega) following the manufacturer's instructions. In brief, the cells were maintained in DMEM containing 10% FCS and incubated at 37° C. in 5% CO2 atmosphere. Cells were plated at a density of 2,000 cells/well on a 96-well plate and incubated for 24 h. Then, these cells were treated with different concentrations of the test compounds and incubated for another 72 hours. At the end of the incubation, CellTiter™-96 Aqueous One Solution Reagent (Promega) was added and incubated for another 4.0 hours. Cell viability was determined by measuring absorbance at 490 nm using EMax® microplate reader (Molecular Devices). Data were processed and analyzed using GraphPad Prism.

The target in another test is T5, B-Raf(V600E) kinase (Homo sapiens, UniProt P15056, V600E).
T5 construct: purchased Upstate Biotechnology
T5 sequence (P15056 whole entry V600E): as the sequence (P15056 whole entry) above, with V600E counted along it
Description: B-Raf(V600E) kinase assay ([33P] incorporation into MEK1(K97R)). Type of test: biochemical. The conditions noted are these: class symbols; 8 μM ATP; read-out: IC50 against B-Raf(V600E) kinase. How it is done:
as §3, with “were 5” for “were 2”, “recombinant B-Raf(V600E)” for “recombinant C-Raf”

Like-named read-outs stand apart in the source and are kept apart here.

T1 sequence (P00533 712-979 limits assumed): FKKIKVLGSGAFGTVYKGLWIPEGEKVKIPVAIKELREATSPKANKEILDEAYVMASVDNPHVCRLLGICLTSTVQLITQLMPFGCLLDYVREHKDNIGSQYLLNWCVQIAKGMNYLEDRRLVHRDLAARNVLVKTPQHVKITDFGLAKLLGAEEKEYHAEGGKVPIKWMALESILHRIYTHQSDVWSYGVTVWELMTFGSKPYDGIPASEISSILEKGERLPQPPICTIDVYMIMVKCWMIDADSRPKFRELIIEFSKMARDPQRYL

For the compound `CCCS(=O)(=O)Nc1ccc(F)c(Nc2ncnc3ccc(-c4cnccc4F)cc23)c1F` [compound 66, N-(2,4-difluoro-3-(6-(4-fluoropyridin-3-yl)quinazolin-4-ylamino)phenyl)propane-1-sulfonamide], the IC50 (usually the concentration that gives 50% inhibition) is over 3000 nM on EGFR kinase (given as bound); under 300 nM on B-Raf kinase; over 3000 nM at VEGFR2 kinase; under 300 nM on C-Raf kinase; under 2000 nM in test [1]; under 300 nM at B-Raf(V600E) kinase.
Take `CCCS(=O)(=O)Nc1ccc(F)c(Nc2ncnc3ccc(-c4cccnc4F)cc23)c1F` [compound 1, N-(2,4-difluoro-3-(6-(2-fluoropyridin-3-yl)quinazolin-4-ylamino)phenyl)propane-1-sulfonamide]: the IC50 at EGFR kinase (given as bound) is over 3000 nM; on B-Raf kinase it was under 300 nM; on VEGFR2 kinase it was over 3000 nM; at C-Raf kinase, under 300 nM; in test [1], under 2000 nM; at B-Raf(V600E) kinase, under 300 nM.
With `CCCS(=O)(=O)Nc1ccc(F)c(Nc2ncnc3ccc(-c4ccc(F)nc4)cc23)c1F` [compound 3, N-(2,4-difluoro-3-(6-(6-fluoropyridin-3-yl)-quinazolin-4-ylamino)phenyl)propane-1-sulfonamide], the IC50 was over 3000 nM on EGFR kinase (given as bound); under 300 nM on B-Raf kinase; over 3000 nM on VEGFR2 kinase; under 300 nM at C-Raf kinase; under 2000 nM in test [1]; under 300 nM at B-Raf(V600E) kinase.
For `CCCS(=O)(=O)Nc1ccc(F)c(Nc2ncnc3ccc(-c4cncc(F)c4)cc23)c1F` [compound 46, N-(2,4-difluoro-3-(6-(5-fluoropyridin-3-yl)quinazolin-4-ylamino)phenyl)propane-1-sulfonamide], the IC50 at EGFR kinase (given as bound) is over 3000 nM; on B-Raf kinase, under 300 nM; on VEGFR2 kinase, over 3000 nM; at C-Raf kinase, under 300 nM; in test [1], under 2000 nM; at B-Raf(V600E) kinase, under 300 nM.
On to `CCCS(=O)(=O)Nc1ccc(F)c(Nc2ncnc3ccc(-c4cccc(C#N)n4)cc23)c1F` [compound 63, N-(3-(6-(6-cyanopyridin-2-yl)quinazolin-4-ylamino)-2,4-difluorophenyl)propane-1-sulfonamide], for which the IC50 at EGFR kinase (class symbols) is 300 to 1000 nM; at B-Raf kinase, under 300 nM; on VEGFR2 kinase, over 3000 nM; at C-Raf kinase it was under 300 nM; in test [1], under 2000 nM; at B-Raf(V600E) kinase it was under 300 nM.
`CCCS(=O)(=O)Nc1ccc(F)c(Nc2ncnc3ccc(-c4ccncc4)cc23)c1F` [compound 12, N-(2,4-difluoro-3-(6-(pyridin-4-yl)-quinazolin-4-ylamino)phenyl)propane-1-sulfonamide]: the IC50 was 300 to 1000 nM on EGFR kinase (class symbols); under 300 nM on B-Raf kinase; over 3000 nM at VEGFR2 kinase; under 300 nM at C-Raf kinase; under 2000 nM in test [1]; under 300 nM on B-Raf(V600E) kinase.
On to `CCCS(=O)(=O)Nc1ccc(F)c(Nc2ncnc3ccc(-c4cccnc4Cl)cc23)c1F` [compound 57, N-(3-(6-(2-chloropyridin-3-yl)-quinazolin-4-ylamino)-2,4-difluorophenyl)propane-1-sulfonamide], for which the IC50 at EGFR kinase (given as bound) was over 3000 nM; at B-Raf kinase, under 300 nM; at VEGFR2 kinase, over 3000 nM; at C-Raf kinase it was under 300 nM; in test [1], under 2000 nM; at B-Raf(V600E) kinase, under 300 nM.
For the compound `CCCS(=O)(=O)Nc1ccc(F)c(Nc2ncnc3ccc(-c4cccc(F)n4)cc23)c1F` [compound 36, N-(2,4-difluoro-3-(6-(6-fluoropyridin-2-yl)-quinazolin-4-ylamino)phenyl)propane-1-sulfonamide], the IC50 on EGFR kinase (class symbols) was 1000 to 3000 nM; at B-Raf kinase, under 300 nM; on VEGFR2 kinase, over 3000 nM; on C-Raf kinase it was 300 to 1000 nM; in test [1], under 2000 nM; on B-Raf(V600E) kinase it was under 300 nM.
With `CCCS(=O)(=O)Nc1ccc(F)c(Nc2ncnc3ccc(-c4ccnc(OCCN(C)C)c4)cc23)c1F` [compound 45, N-(3-(6-(2-(2-(dimethylamino)ethoxy)-pyridin-4-yl)quinazolin-4-ylamino)-2,4-difluorophenyl)propane-1-sulfonamide], the IC50 on EGFR kinase (given as bound) was over 3000 nM; on B-Raf kinase it was under 300 nM; on VEGFR2 kinase, over 3000 nM; at C-Raf kinase it was 1000 to 10000 nM; in test [1], under 2000 nM; at B-Raf(V600E) kinase, under 300 nM.
On to `CCCS(=O)(=O)Nc1ccc(F)c(Nc2ncnc3cc(OCCOC)c(-c4cccnc4F)cc23)c1F` [compound 29, N-(2,4-difluoro-3-(6-(2-fluoropyridin-3-yl)-7-(2-methoxyethoxy)quinazolin-4-ylamino)phenyl)propane-1-sulfonamide], for which the IC50 was 300 to 1000 nM at EGFR kinase (class symbols); under 300 nM at B-Raf kinase; over 3000 nM on VEGFR2 kinase; under 300 nM on C-Raf kinase; under 2000 nM in test [1]; under 300 nM at B-Raf(V600E) kinase.
On to `CCCS(=O)(=O)Nc1ccc(F)c(Nc2ncnc3ccc(-c4ccc(OCCN(C)C)nc4)cc23)c1F` [compound 35, N-(3-(6-(6-(2-(dimethylamino)ethoxy)-pyridin-3-yl)quinazolin-4-ylamino)-2,4-difluorophenyl)propane-1-sulfonamide], for which the IC50 on EGFR kinase (class symbols) was 300 to 1000 nM; on B-Raf kinase, under 300 nM; on VEGFR2 kinase, over 3000 nM; on C-Raf kinase, 1000 to 10000 nM; in test [1], under 2000 nM; on B-Raf(V600E) kinase, under 300 nM.
